Measurements reported in ChEMBL document CHEMBL1201862, “PubChem BioAssay data set” (2004).
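Tested at 5 concentrations; 48 h exposure; 96-well plates; endpoints linearly interpolated, else capped at highest concentration. GI50 = concentration required for 50% inhibition of growth.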 Calls of active or inactive are those of the source. Cut-off read from the data, not from the text of the source: active = GI50 up to about 1.1 µM and inactive = higher.

Key:
Experiment in all cases: NCI anticancer screen, dose series, 48 h
[1] = tested on: 786-0
[2] = tested on: A498
[3] = tested on: A549
[4] = tested on: ACHN
[5] = tested on: BT-549
[6] = tested on: CAKI-1
[7] = tested on: CCRF-CEM
[8] = tested on: COLO 205
[9] = tested on: DU-145
[10] = tested on: EKVX
[11] = tested on: HCC 2998
[12] = tested on: HCT-116
[13] = tested on: HCT-15
[14] = tested on: HL-60
[15] = tested on: HOP-62
[16] = tested on: HT-29
[17] = tested on: IGROV-1
[18] = tested on: K562
[19] = tested on: KM12
[20] = tested on: LOX IMVI
[21] = tested on: M14
[22] = tested on: MCF7
[23] = tested on: MDA-MB-231
[24] = tested on: MDA-MB-435
[25] = tested on: MOLT-4
[26] = tested on: NCI-H226
[27] = tested on: NCI-H23
[28] = tested on: NCI-H460
[29] = tested on: NCI-H522
[30] = tested on: NCI/ADR-RES
[31] = tested on: OVCAR-3
[32] = tested on: OVCAR-4
[33] = tested on: OVCAR-5
[34] = tested on: OVCAR-8
[35] = tested on: PC-3
[36] = tested on: RPMI-8226
[37] = tested on: RXF 393
[38] = tested on: SF-268
[39] = tested on: SF-295
[40] = tested on: SF-539
[41] = tested on: SK-MEL-28
[42] = tested on: SK-MEL-2
[43] = tested on: SK-MEL-5
[44] = tested on: SK-OV-3
[45] = tested on: SN12C
[46] = tested on: SNB-75
[47] = tested on: SR
[48] = tested on: SW-620
[49] = tested on: T47D
[50] = tested on: TK-10
[51] = tested on: U-251
[52] = tested on: UACC-257
[53] = tested on: UACC-62
[54] = tested on: UO-31
[55] = tested on: HOP-92
[56] = tested on: MDA-N
[57] = tested on: Malme-3M
[58] = tested on: SNB-19

O=c1c2ncn(C3CCCO3)c2n(-c2ccccc2)c(=S)n1-c1ccccc1 (configuration not stated)
GI50 [1]: > 100 µM (inactive)
GI50 [2]: > 100 µM (inactive)
GI50 [3]: > 100 µM (inactive)
GI50 [4]: > 100 µM (inactive)
GI50 [5]: > 100 µM (inactive)
GI50 [6]: > 100 µM (inactive)
GI50 [7]: > 100 µM (inactive)
GI50 [8]: > 100 µM (inactive)
GI50 [9]: > 100 µM (inactive)
GI50 [10]: > 100 µM (inactive)
GI50 [11]: > 100 µM (inactive)
GI50 [12]: > 100 µM (inactive)
GI50 [13]: > 100 µM
GI50 [14]: > 100 µM (inactive)
GI50 [15]: > 100 µM (inactive)
GI50 [16]: > 100 µM (inactive)
GI50 [17]: > 100 µM (inactive)
GI50 [18]: > 100 µM (inactive)
GI50 [19]: > 100 µM (inactive)
GI50 [20]: > 100 µM (inactive)
GI50 [21]: > 100 µM (inactive)
GI50 [22]: > 100 µM (inactive)
GI50 [23]: > 100 µM (inactive)
GI50 [24]: > 100 µM (inactive)
GI50 [25]: > 100 µM (inactive)
GI50 [26]: > 100 µM (inactive)
GI50 [27]: > 100 µM (inactive)
GI50 [28]: > 100 µM (inactive)
GI50 [29]: > 100 µM (inactive)
GI50 [30]: > 100 µM (inactive)
GI50 [31]: > 100 µM (inactive)
GI50 [32]: > 100 µM (inactive)
GI50 [33]: > 100 µM (inactive)
GI50 [34]: > 100 µM (inactive)
GI50 [35]: > 100 µM (inactive)
GI50 [36]: > 100 µM (inactive)
GI50 [37]: > 100 µM (inactive)
GI50 [38]: > 100 µM (inactive)
GI50 [39]: > 100 µM (inactive)
GI50 [40]: > 100 µM (inactive)
GI50 [41]: > 100 µM (inactive)
GI50 [42]: > 100 µM (inactive)
GI50 [43]: > 100 µM (inactive)
GI50 [44]: > 100 µM (inactive)
GI50 [45]: > 100 µM (inactive)
GI50 [46]: 97.7 µM (inactive)
GI50 [47]: > 100 µM (inactive)
GI50 [48]: > 100 µM (inactive)
GI50 [49]: > 100 µM (inactive)
GI50 [50]: > 100 µM (inactive)
GI50 [51]: > 100 µM (inactive)
GI50 [52]: > 100 µM (inactive)
GI50 [53]: > 100 µM (inactive)
GI50 [54]: > 100 µM (inactive)

O=C(NCCCl)Nc1cccnc1
GI50 [1]: 16.9 µM (inactive)
GI50 [2]: 24.7 µM (inactive)
GI50 [3]: 31.6 µM (inactive)
GI50 [4]: 13.6 µM (inactive)
GI50 [6]: 21.5 µM (inactive)
GI50 [7]: 33.7 µM (inactive)
GI50 [8]: 24.7 µM (inactive)
GI50 [9]: 15.4 µM (inactive)
GI50 [10]: 14.1 µM (inactive)
GI50 [11]: 17.7 µM (inactive)
GI50 [12]: 13.8 µM (inactive)
GI50 [13]: 22.3 µM
GI50 [14]: 49.3 µM (inactive)
GI50 [15]: 34.4 µM (inactive)
GI50 [55]: 19.9 µM (inactive)
GI50 [16]: 18.4 µM (inactive)
GI50 [17]: 13.6 µM (inactive)
GI50 [18]: 50 µM (inactive)
GI50 [19]: 13.8 µM (inactive)
GI50 [20]: 19.3 µM (inactive)
GI50 [21]: 17.6 µM (inactive)
GI50 [22]: 41.3 µM (inactive)
GI50 [23]: 17.4 µM (inactive)
GI50 [24]: 24.5 µM (inactive)
GI50 [56]: 12.8 µM (inactive)
GI50 [25]: 33 µM (inactive)
GI50 [57]: 2.62 µM (inactive)
GI50 [26]: 15.7 µM (inactive)
GI50 [27]: 17.5 µM (inactive)
GI50 [29]: 25.6 µM (inactive)
GI50 [30]: 21 µM (inactive)
GI50 [31]: 26.5 µM (inactive)
GI50 [32]: 43.1 µM (inactive)
GI50 [34]: 12.4 µM (inactive)
GI50 [35]: 31.4 µM (inactive)
GI50 [36]: 2.84 µM (inactive)
GI50 [37]: 0.951 µM (active)
GI50 [39]: 30 µM (inactive)
GI50 [40]: 31.3 µM (inactive)
GI50 [41]: 21.2 µM (inactive)
GI50 [42]: 29 µM (inactive)
GI50 [43]: 5.19 µM (inactive)
GI50 [44]: 20.6 µM (inactive)
GI50 [45]: 21.5 µM (inactive)
GI50 [58]: 41.4 µM (inactive)
GI50 [46]: 29.6 µM (inactive)
GI50 [48]: 50.7 µM (inactive)
GI50 [49]: 35.7 µM (inactive)
GI50 [50]: 11.2 µM (inactive)
GI50 [51]: 16.7 µM (inactive)
GI50 [52]: 8 µM (inactive)
GI50 [53]: 15.3 µM (inactive)
GI50 [54]: 22.3 µM (inactive)
